Patent EP4806900A2, “RAS INHIBITORS” (Revolution Medicines, Inc., priority 2019, dated 2021)
Several values for one entry are separate records, joined by “and”; a condition that tells them apart may be missing. Identical values can stand only once. Like-named read-outs stand apart in the source and are kept apart here. Each block holds one compound with its values, some of them ahead of it.

Tests used:
SW1573 = settings: Canon et al., Nature 575:217-223 (2019); cited from earlier work
NCI-H358 (K-Ras G12C) = test: CellTiter-Glo cell viability assay, NCI-H358; type: cell-based, human; settings: Table 5; read-out: H358 Cell Viability assay data (K-Ras G12C, IC50)
Outline: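 Compounds dispensed directly onto plated NCI-H358 cells; plates equilibrated to room temperature on day 5 before luminescence read-out. Signal normalized to mean DMSO control (%) and fitted by four-parameter logistic.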

[1] = tested on: NCI-H358 KRASG12C xenograft; test: In vivo NSCLC K-Ras G12C xenograft model (tumor growth); design: species or system BALB/c nude mice
NSCLC (KRAS G12C) model = test: NSCLC (KRAS G12C) xenograft model, combinations; type: in vivo, mice
[2] = single agents: Compound B 50 mg/kg intravenous twice weekly, cobimetinib […] daily oral

Compound: CC(C)[Si](Oc1cc2cc(c1)-c1ccc3[nH]c(I)c(c3c1)CC(C)(C)COC(=O)[C@@H]1CCCN(N1)C(=O)[C@@H](NC(=O)OC(C)(C)C)C2)(C(C)C)C(C)C
ring closure, yield of all isomers (from CC(C)[Si](Oc1cc(C[C@H](NC(=O)OC(C)(C)C)C(=O)N2CCC[C@@H](C(=O)O)N2)cc(-c2ccc3[nH]c(I)c(CC(C)(C)CO)c3c2)c1)(C(C)C)C(C)C, ester bond, EDCI/HOBt/DIPEA, DCM, 22.8 mM, 25.0 °C, 16.0 h): 50%

Compound: CC1(C)COC(=O)[C@@H]2CCCN(N2)C(=O)[C@@H](NC(=O)OC(C)(C)C)Cc2cccc(c2)-c2ccc3[nH]c(I)c(c3c2)C1
ring closure, yield of all isomers (from CC(C)(CO)Cc1c(I)[nH]c2ccc(-c3cccc(C[C@H](NC(=O)OC(C)(C)C)C(=O)N4CCC[C@@H](C(=O)O)N4)c3)cc12, ester bond, EDCI/HOBt/DIPEA, DCM, 12.8 mM, 0.0 °C, 16.0 h): 79.8%

Compound: CCn1c(-c2ccccc2COC)c2c3cc(ccc31)-c1cc(cc([N+](=O)[O-])c1)C[C@H](NC(=O)OC(C)(C)C)C(=O)N1CCC[C@H](N1)C(=O)OCC(C)(C)C2
ring closure, yield of all isomers (from CCn1c(-c2ccccc2COC)c(CC(C)(C)CO)c2cc(-c3cc(C[C@H](NC(=O)OC(C)(C)C)C(=O)N4CCC[C@@H](C(=O)O)N4)cc([N+](=O)[O-])c3)ccc21, ester bond, EDCI/HOBt/DIPEA, DCM, 6.4 mM, 25.0 °C, 16.0 h): 73%

Compound: CCn1c(-c2cccnc2[C@H](C)OC)c2c3cc(ccc31)-c1cc(cc(C(F)F)c1)C[C@H](NC(=O)OC(C)(C)C)C(=O)N1CCC[C@H](N1)C(=O)OCC(C)(C)C2
ring closure, yield of all isomers (from CCn1c(-c2cccnc2[C@H](C)OC)c(CC(C)(C)CO)c2cc(-c3cc(C[C@H](NC(=O)OC(C)(C)C)C(=O)N4CCC[C@@H](C(=O)O)N4)cc(C(F)F)c3)ccc21, ester bond, EDCI/HOBt/DIPEA, DCM, 16.0 h): 51%

Compound: CCn1c(-c2cccnc2[C@H](C)OC)c2c3cc(ccc31)-c1cc(cc(O[Si](C(C)C)(C(C)C)C(C)C)c1)C[C@H](NC(=O)OC(C)(C)C)C(=O)N1CCC[C@H](N1)C(=O)OCC(C)(C)C2
ring closure, yield of all isomers (from CCn1c(-c2cccnc2[C@H](C)OC)c(CC(C)(C)CO)c2cc(-c3cc(C[C@H](NC(=O)OC(C)(C)C)C(=O)N4CCC[C@@H](C(=O)O)N4)cc(O[Si](C(C)C)(C(C)C)C(C)C)c3)ccc21, ester bond, EDCI/HOBt/DIPEA, DCM, 15.3 mM, 25.0 °C, 16.0 h): 42%

Compound: CCn1c(-c2cccnc2[C@H](C)OC)c2c3cc(ccc31)-c1nc(co1)C[C@H](NC(=O)OC(C)(C)C)C(=O)N1CCC[C@H](N1)C(=O)OCC(C)(C)C2
ring closure, yield of all isomers (from CCn1c(-c2cccnc2[C@H](C)OC)c(CC(C)(C)COC(=O)[C@@H]2CCCN(C(=O)[C@H](Cc3coc(Br)n3)NC(=O)OC(C)(C)C)N2)c2cc(B3OC(C)(C)C(C)(C)O3)ccc21, cc_pd bond, XPhos Pd G3, dioxane, […], 70.0 °C, 4.0 h): 56%

Compound: CCn1c(-c2cccnc2[C@H](C)OC)c2c3cc(ccc31)-c1nc(nn1C)C[C@H](NC(=O)OC(C)(C)C)C(=O)N1CCC[C@H](N1)C(=O)OCC(C)(C)C2
ring closure, yield of all isomers (from CCn1c(-c2cccnc2[C@H](C)OC)c(CC(C)(C)COC(=O)[C@@H]2CCCN(C(=O)[C@H](Cc3nc(Br)n(C)n3)NC(=O)OC(C)(C)C)N2)c2cc(B3OC(C)(C)C(C)(C)O3)ccc21, cc_pd bond, XPhos Pd G3, dioxane, 71.7 mM, 75.0 °C, 3.0 h): 56.8%

Compound: CCn1c(-c2cccnc2[C@H](C)OC)c2c3cc(ccc31)-c1cnc(o1)C[C@H](NC(=O)OC(C)(C)C)C(=O)N1CCC[C@H](N1)C(=O)OCC(C)(C)C2
ring closure, yield of all isomers (from CCn1c(-c2cccnc2[C@H](C)OC)c(CC(C)(C)CO)c2cc(-c3cnc(C[C@H](NC(=O)OC(C)(C)C)C(=O)N4CCC[C@@H](C(=O)O)N4)o3)ccc21, ester bond, EDCI/HOBt, DIPEA, DCM, 13.7 mM, 0.0 °C, 2.0 h): 56.4%

Compound: CCn1c(-c2cccnc2[C@H](C)OC)c2c3cc(ccc31)N1CCC[C@@H](C[C@H](NC(=O)OCc3ccccc3)C(=O)N3CCC[C@H](N3)C(=O)OCC(C)(C)C2)C1
ring closure, yield of all isomers (from CCn1c(-c2cccnc2[C@H](C)OC)c(CC(C)(C)CO)c2cc(N3CCC[C@@H](C[C@H](NC(=O)OCc4ccccc4)C(=O)N4CCC[C@@H](C(=O)O)N4)C3)ccc21, ester bond, EDCI/HOBt/DIPEA, DCM, 36.7 mM, 25.0 °C, 6.0 h): 36%

Compound: CCn1c(-c2cccnc2[C@H](C)OC)c2c3cc(ccc31)N1CCO[C@@H](C[C@H](NC(=O)OCc3ccccc3)C(=O)N3CCC[C@H](N3)C(=O)OCC(C)(C)C2)C1
ring closure, yield of all isomers (from CCn1c(-c2cccnc2[C@H](C)OC)c(CC(C)(C)CO)c2cc(N3CCO[C@@H](C[C@H](NC(=O)OCc4ccccc4)C(=O)N4CCC[C@@H](C(=O)O)N4)C3)ccc21, ester bond, EDCI/HOBt/DIPEA, DCM, 12.75 mM, 25.0 °C, 16.0 h): 66%

Compound: CCn1c(-c2cccnc2[C@H](C)OC)c2c3nc(ccc31)-c1csc(n1)C[C@H](NC(=O)OC(C)(C)C)C(=O)N1CCC[C@H](N1)C(=O)OCC(C)(C)C2
ring closure, yield of all isomers (from CCn1c(-c2cccnc2[C@H](C)OC)c(CC(C)(C)CO)c2nc(-c3csc(C[C@H](NC(=O)OC(C)(C)C)C(=O)N4CCC[C@@H](C(=O)O)N4)n3)ccc21, ester bond, EDCI HCl/HOBt/DIPEA, DCM, 6.4 mM, 25.0 °C, 16.0 h): 43%

Compound: CO[C@@H](C)c1ncc(N2CCN(C(=O)OCc3ccccc3)CC2)cc1-c1c2c3cc(ccc3n1CC(F)(F)F)-c1cccc(c1)C[C@H](NC(=O)OC(C)(C)C)C(=O)N1CCC[C@H](N1)C(=O)OCC(C)(C)C2
ring closure, yield of all isomers (from CO[C@@H](C)c1ncc(N2CCN(C(=O)OCc3ccccc3)CC2)cc1-c1c(CC(C)(C)CO)c2cc(-c3cccc(C[C@H](NC(=O)OC(C)(C)C)C(=O)N4CCC[C@@H](C(=O)O)N4)c3)ccc2n1CC(F)(F)F, ester bond, EDCI/HOBt/DIPEA, DCM, 9.87 mM, 25.0 °C, 12.0 h): 67.9%

Compound: CO[C@@H](C)c1ncccc1-c1c2c3cc(ccc3n1CC(F)(F)F)N1CCO[C@@H](C[C@H](NC(=O)OCc3ccccc3)C(=O)N3CCC[C@H](N3)C(=O)OCC(C)(C)C2)C1
ring closure, yield of all isomers (from CO[C@@H](C)c1ncccc1-c1c(CC(C)(C)CO)c2cc(N3CCO[C@@H](C[C@H](NC(=O)OCc4ccccc4)C(=O)N4CCC[C@@H](C(=O)O)N4)C3)ccc2n1CC(F)(F)F, ester bond, EDCI/HOBt/DIPEA, DCM, 11.25 mM, 16.0 h): 74%

Compound: C=CC(=O)N1CCN(c2nc(=O)n(-c3c(C)ccnc3C(C)C)c3nc(-c4c(O)cccc4F)c(F)cc23)[C@@H](C)C1 [AMG510]
sensitivity of cell line (SW1573): insensitive

IC50 (NCI-H358 (K-Ras G12C)): 10 to 100 nM
Compound: C=CC(=O)N1CC[C@H](C(=O)N(C)[C@H](C(=O)N[C@H]2Cc3cc(O)cc(c3)-c3ccc4c(c3)c(c(-c3ccc(CN5CCCC5)cc3)n4CC)CC(C)(C)COC(=O)[C@@H]3CCCN(N3)C2=O)C(C)C)C1 [Examples A10]

Compound: Cc1nc(N2CCC3(CC2)CO[C@@H](C)[C@H]3N)c(CO)nc1-c1cccc(Cl)c1Cl [RMC-4550]
mice with tumor regression (greater than 10% reduction of tumor volume at end of study) ([1]; single agents: Compound C 60 mg/kg intravenous once weekly, SHP2 inhibitor (RMC-4550) 30 mg/kg daily oral): 5 out of 10

Compound: O=C(c1ccc(F)c(F)c1Nc1ccc(I)cc1F)N1CC(O)([C@@H]2CCCCN2)C1 [cobimetinib]
effect on tumor growth [1, 2]: tumor growth inhibition
mice with tumor regression (greater than 10% reduction of tumor volume at end of study) [1, 2]: no tumor regressions
tumor response, single agent (FIG. 3A) (NSCLC (KRAS G12C) model; Compound B 50 mg/kg intermittent intravenous or cobimetinib […] daily oral, alone): tumor growth inhibition
tumor regressions at end of study, single agent group (FIG. 3B) (NSCLC (KRAS G12C) model; each single agent): no tumor regressions

IC50 (NCI-H358 (K-Ras G12C)): < 10 nM
Compound: (2R)-2-(((1-(4-(dimethylamino)-4-methylpent-2-ynoyl)azetidin-3-yl)oxy)methyl)-N-((6^3S,4S)-1^1-ethyl-1^2-(2-((S)-1-methoxyethyl)pyridin-3-yl)-10,10-dimethyl-5,7-dioxo-6^1,6^2,6^3,6^4,6^5,6^6-hexahydro-1^1H-8-oxa-1(5,3)-indola-6(1,3)-pyridazina-2(1,3)-benzenacycloundecaphane-4-yl)-3-methylbutanamide [Compound A316]

IC50 (NCI-H358 (K-Ras G12C)): < 10 nM and 10 to 100 nM
Compound: (2S)-N-[(7S,13S)-21-ethyl-20-[2-(methoxymethyl)pyridin-3-yl]-17,17-dimethyl-8,14-dioxo-15-oxa-4-thia-9,21,27,28-tetraazapentacyclo[17.5.2.1^2,^5.1^9,^13.0^22,^26]octacosa-1(25),2,5(28),19,22(26),23-hexaen-7-yl]-3-methyl-2-{N-methyl-1-[(3S)-1-(prop-2-enoyl)pyrrolidin-3-yl]formamido}butanamide [Compound A194]

IC50 (NCI-H358 (K-Ras G12C)): 10 to 100 nM
Compound: (2S)-N-[(8S,14S,20P)-22-ethyl-21-{4-[(1S)-1-methoxyethyl]pyridin-3-yl}-18,18-dimethyl-9,15-dioxo-16-oxa-10,22,28-triazapentacyclo[18.5.2.1^2,^6.1^10,^14.0^23,^27]nonacosa-1(26),2,4,6(29),20,23(27),24-heptaen-8-yl]-3-methyl-2-{N-methyl-1-[(3S)-1-(prop-2-enoyl)pyrrolidin-3-yl]formamido}butanamide [Compound A115]
